Reference: PMC3387161, “Small Molecules Targeted to a Non-Catalytic “RVxF” Binding Site of Protein Phosphatase-1 Inhibit HIV-1” (PLoS ONE, 2012)
Several values for one entry are separate records, joined by “and”; a condition that tells them apart may be missing. Equal entries are not always repeated. Square brackets hold non-standard residues; d marks the D form. Ends that are not written are not given here. pS = N[C@@H](COP(=O)(O)O)C(=O)O

Assays:
recombinant PP1α = biological target: T1, recombinant PP1α (Oryctolagus cuniculus, UniProt P62139); assay: Malachite green dephosphorylation of RVxF-containing hybrid pRb peptides by PP1α; assay type: biochemical; conditions: peptide as substrate, no compound added
T1 construct: purchased New England Biolabs, Ipswich, MA
From the text: Here, we analyzed the effect of 1H4 on the binding of the Tat RVxF sequence to PP1 using hybrid PP1 substrates containing a substrate phosphopeptide linked to RVxF-containing sequences derived from Tat or NIPP1. As the substrate phosphopeptide, we used a retinoblastoma protein-derived HIPR(pS)[…] peptide (pRb) that is efficiently dephosphorylated by PP1 but not by the enzymatically-related PP2A [13]. The pRb peptide was linked to an extended RVxF-containing sequence derived from Tat ([…]) (pRb-Tat peptide) or the central domain of NIPP1 ([…]). To visualize the interaction between pRb-Tat and PP1 we built a computational model of the pRb-Tat peptide with PP1 complex (described in Materials and Methods). Based on this model, the pRb-Tat peptide is able to bind to the RVxF- accommodating groove of PP1 and, at the same time, to reach the active site of PP1 without any tension (Fig. 5A, green spheres; Fig. 5B, gray sticks). The pRb-Tat peptide was efficiently dephosphorylated by PP1 in vitro (Fig. 5C, V0 = 0.31 µM·min^-1). […] Addition of 1H4 at 3-fold molar excess (480 µM) over pRb-Tat (160 µM) inhibited pRb-Tat dephosphorylation and reduced the rate of dephosphorylation (Fig. 5C, V0 = 0.19 µM·min^−1) to the rate of pRb-Tat QACA dephosphorylation (Fig. 5C, V0 = 0.17 µM⋅min^−1). […] To further investigate the effect of 1H4 on the dephosphorylation of the pRb-Tat peptide, we analyzed the initial velocity versus pRb-Tat peptide substrate concentration plots. […] This was expected because the dephosphorylation site and the RVxF-containing sequence were fused into one hybrid substrate and 1H4 interferes with the binding of this substrate to PP1.
Figure 5 1H4 compound competes with RVxF motif. A. Superimposition of pRb-Tat peptide on the complex of PP1 with Spinophilin. PP1 surface is colored after the atom types. The spinophilin peptide is shown as magenta ribbon and the pRb-Tat peptide as orange ribbon. The Val25 and Phe27 residues of pRb-Tat and the Ile449 and Phe 451 residues of Spinophilin are shown as sticks. The 2-(N-morpholino)-ethanesulfonic acid bound in the active site of PP1 is shown in green spheres. The phosphorylated Ser6 residue of pRb-Tat peptide is shown as sticks. B. Phosphorylated Ser 6 residue binds to the active site of PP1. Comparative superimposition of pRb-Tat peptide over the crystal structure of MES bound in the active site of PP1. Catalytic resides are shown as sticks. MES is shown as green sticks, and the phosphorylated Ser6 residue of pRb-Tat peptide is shown as orange sticks. The pRb-Tat peptide is shown as orange ribbon. C. 1H4 inhibits kinetics of pRb-Tat peptide dephosphorylation by PP1α. Recombinant PP1α was assayed with pRb-Tat (WT or QACA mutant, 120 µM) in the absence or presence of 1H4 as indicated. The reactions were stopped at indicated time points and the phosphate release was quantified by malachite green assay. Initial velocity was calculated by linear regression in Prism. D. 1H4 inhibits kinetics of pRb-cdNIPP dephosphorylation by PP1α. Recombinant PP1α was assayed with pRb-cdNIPP1 in the absence or presence of 1H4 as indicated. Mutant pRb cdNIPP1 pA-RATA was used as negative control. The reactions were stopped at indicated time points and the phosphate release was quantified by malachite green assay. Initial velocity was calculated by linear regression in Prism. […] Initial rates of pRb-Tat peptide dephosphorylation by PP1α were assayed at the indicated concentrations of the substrate in the absence or presence of 300 µM 1H4 or non-HIV-1 inhibitory 1G3. The amount of the released phosphate was quantified with malachite green.
Malachite green dephosphorylation assays were carried out with the Ser/Thr phosphatase assay kit (Upstate, Lake Placid, NY) using recombinant PP1α (New England Biolabs, Ipswich, MA). […]

[1] = system: HIV-1 transcription in CEM-GFP cells; assay: cells; assay type: cell-based; conditions: for IC50: Human immunodeficiency virus 1, CEM-GFP, 24 h, read-out: Inhibition of HIV-1 Transcription in CEM-GFP cells (IC50, μM)
CEM cells = assay: Toxicity by propidium iodide fluorescence in CEM-GFP cells; assay type: cell-based; conditions: Homo sapiens, CCRF-CEM, 3 µM to 45 µM, 24 h
PP1α = PP1α (Homo sapiens, UniProt P62136)
Chain of PP1α (P62136 whole entry): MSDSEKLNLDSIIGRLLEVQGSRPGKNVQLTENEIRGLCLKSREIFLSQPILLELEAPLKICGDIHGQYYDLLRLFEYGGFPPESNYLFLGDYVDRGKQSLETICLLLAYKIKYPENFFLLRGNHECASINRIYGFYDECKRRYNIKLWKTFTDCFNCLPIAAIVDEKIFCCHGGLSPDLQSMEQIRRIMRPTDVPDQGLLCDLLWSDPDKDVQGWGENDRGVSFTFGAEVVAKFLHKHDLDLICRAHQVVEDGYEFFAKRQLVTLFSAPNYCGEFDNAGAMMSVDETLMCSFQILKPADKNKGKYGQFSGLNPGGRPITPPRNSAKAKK

T1 sequence (P62139 whole entry): as the sequence (P62136 whole entry) above

| Molecule | Initial velocity V0 of peptide dephosphorylation by PP1α (recombinant PP1α) | IC50 [1] [µM] | IC50 (CEM cells) [µM] | further results |
| --- | --- | --- | --- | --- |
| HIPR[pS]PYKFPSSPLRAAAAASRATASED [pRb-NIPP1 pA-RATA] | 0.004 µM/min | – | – | Initial velocity V0 of peptide dephosphorylation by PP1α (recombinant PP1α; listed as pRb-cdNIPP1 pA-RATA): 0.017 ± 0.004 µM/min |
| HIPR[pS]PYKFPSSPLRKRKRKNSRVTFSED [pRb-NIPP1] | 0.56 µM/min | – | – | Initial velocity V0 of peptide dephosphorylation by PP1α (recombinant PP1α; listed as pRb-cdNIPP1): 0.56 ± 0.03 µM/min |
| O=C(CNC(=O)c1ccccc1SCC(=O)NC12CC3CC(CC(C3)C1)C2)Nc1ccc(Cl)cc1 [T5498680] | – | 5 | 5 | – |
| CN(C1CCCCC1)S(=O)(=O)c1ccc(NC(=O)COc2ccccc2-c2ccccc2)cc1 [T5551920] | – | 15 | 15 | – |
| CCN(CC)S(=O)(=O)c1ccc2c(c1)nc(CCC(=O)N(C)c1ccc(C(F)(F)F)cc1)n2C [T5326526] | – | 15 | 10 | – |
| HIPR(pS)PYKFPSSPLRKKCCFHCQVCFITK [pRb-Tat] | 0.31 µM/min and 0.31 ± 0.03 µM/min | – | – | – |
| HIPR[pS]PYKFPSSPL [pRb, reference compound] | 0.014 µM/min | – | – | – |
| CC(OC(=O)c1ccccc1SCC(=O)Nc1ccc2c(c1)OCO2)C(=O)NCCC1=CCCCC1 (stereo not shown) [T5369370] | – | 10 | 15 | – |
| HIPR(pS)PYKFPSSPLRKKCCFHCQACAITK (HIPR[pS]PYKFPSSPLRKKCCFHCQACAITK; cysteine pairing not given here) [pRb-Tat QACA] | 0.17 µM/min and 0.17 ± 0.02 µM/min | – | – | – |
| Nc1c2c(nc3ccccc13)CCCC2 [9-amino-1,2,3,4-tetrahydroacridine, reference compound] | – | – | – | Activity as HIV-1 transcription inhibitor (in words) ([1]; data not shown, assay not specified): not active |
| O=S(=O)(Nc1ccc(S(=O)(=O)N2CCC(Cc3ccccc3)CC2)cn1)c1ccccc1 [T5481237] | – | 15 | 20 | – |
| CCC(c1nnc(SCC(=O)Nc2ncc(-c3ccc(F)cc3)s2)n1Cc1ccccc1)N(C)C (stereo not shown) [T5251659] | – | 10 | 6 | – |
| HIPR[pS]PYKFPSSPLRKRKRKNSRVTFSED [pRb-NIPP1 peptide] | – | – | – | initial velocity V0 of dephosphorylation of the peptide by recombinant PP1α in the presence of the small molecule 1H4 (PP1α): 0.37 µM⋅min^−1; initial velocity V0 of dephosphorylation of the peptide by recombinant PP1α in vitro (malachite green) (PP1α): 0.56 µM⋅min^−1 |
